Data set [1] relates to lamina cribrosa cell line #517. The data set can be described thus: Hoescht staining apoptosis of siRNA-transfected lamina cribrosa cells treated with TNF-α and camptothecin. The format is cell-based, human. As to conditions: 72 h after siRNA transfection, 24 h TNF-α plus camptothecin. The method, then: Lamina cribrosa cell line #517 cells were seeded at 7500 cells per well onto an 8-well culture slide. Three days later the LC cells were transfected with either apoptosis-specific eIF-5A siRNA #1 (SEQ ID NO:30) or control siRNA #5 (SEQ ID NO:34). 72 hours after transfection, the transfected cells were treated with 10 ng/ml TNF-α plus 50 μM camptothecin. Twenty-four hours later the cells were stained with Hoescht 33258 and viewed by fluorescence microscopy using a UV filter. Cells with brightly stained condensed or fragmented nuclei were counted as apoptotic. The results of two independent experiments are represented here.
Small inhibitory RNAs (siRNAs) directed against human apoptosis-specific eIF-5A were used to specifically suppress expression of eIF5A in lamina cribrosa cells. Six siRNAs were generated by in vitro transcription using the Silencer™ siRNA Construction Kit (Ambion Inc.), Four siRNAs were generated against human apoptosis-specific eIF-5A (siRNAs #1 to #4). […] The siRNAs were generated according to the manufacturer's protocol. […]
Transfected cells that had been treated with TNF-α and camptothecin for 24 hours were stained with Hoescht 33258 in order to determine the percentage of cells undergoing apoptosis. […] Cells with brightly stained or fragmented nuclei were scored as apoptotic. A minimum of 200 cells were counted per well. […]

For data set [2], the system named is lamina cribrosa cell line #506. The data set is described as above. The format is cell-based, human. As to conditions: LC #506, 72 h after siRNA transfection, 24 h 10 ng/ml TNF-α plus 50 μM camptothecin. Here is the method: Lamina cribrosa cell line #506 cells were seeded at 7500 cells per well onto an 8-well culture slide. Three days later the LC cells were transfected with either GAPDH siRNA, apoptosis-specific eIF-5A siRNAs #1-4 (SEQ ID NO:30-33), or control siRNA #5 (SEQ ID NO:34). 72 hours after transfection, the transfected cells were treated with 10 ng/ml TNF-α plus 50 μM camptothecin. Twenty-four hours later the cells were stained with Hoescht 33258 and viewed by fluorescence microscopy using a UV filter. Cells with brightly stained condensed or fragmented nuclei were counted as apoptotic. This graph represents the average of n=4 independent experiments.
Following transfection, RKO and lamina cribrosa cells were incubated for 72 hours prior to collection of cellular extract for Western blot analysis. In order to determine the effectiveness of the siRNAs directed against apoptosis-specific eIF-5A to block apoptosis, lamina cribrosa cells were treated with 50 μM of camptothecin (Sigma) and 10 ng/ml of TNF-α (Leinco Technologies) to induce apoptosis either 48 or 72 hours after transfection. The cells were stained with Hoescht either 24 or 48 hours later in order to determine the percentage of cells undergoing apoptosis.
Small inhibitory RNAs (siRNAs) directed against human apoptosis-specific eIF-5A were used to specifically suppress expression of eIF5A in lamina cribrosa cells. Six siRNAs were generated by in vitro transcription using the Silencer™ siRNA Construction Kit (Ambion Inc.), Four siRNAs were generated against human apoptosis-specific eIF-5A (siRNAs #1 to #4). […] The siRNAs were generated according to the manufacturer's protocol. The eIF5A and control siRNA targets had the following sequences: siRNA #1 5′ […] 3′ (SEQ ID NO: 81); siRNA #2 5′ […] 3′ (SEQ ID NO: 82); siRNA #3 5′ […] 3′ (SEQ ID NO: 83); siRNA #4 5′ […] 3′ (SEQ ID NO: 84); siRNA #5′ […] 3′ (SEQ ID NO: 85). Lamina cribrosa cells were transfected with siRNA using LipofectAMINE 2000.
Lamina cribrosa cells were transfected when cell confluence was at 40 to 70% and were generally seeded onto 8-well culture slides at 7500 cells per well three days prior to transfection. Transfection medium sufficient for one well of an 8-well culture slide was prepared by diluting 25.5 proles of siRNA to a final volume of 21.2 μl in Opti-Mem (Sigma). 0.425 μl of Lipofectamine 2000 was diluted to a final volume of 21.2 μl in Opti-Mem and incubated for 7 to 10 minutes at room temperature. The diluted Lipofectamine 2000 mixture was then added to the diluted siRNA mixture and incubated together at room temperature for 20 to 30 minutes, The cells were washed once with serum-free media before adding 135 μl of serum-free media to the cells and overlaying 42.4 μl of transfection medium. […]

With “siRNA #1: siRNA against human apoptosis-specific eIF-5A (SEQ ID NO:30); target 5′ AAAGGAATGACTTCCAGCTGA 3′ (SEQ ID NO: 81) (AAAGGAAUGACUUCCAGCUGATT; RNA, all phosphodiester, T or U not given here; listed as Homo sapiens)”, the “reduce apoptosis of the LC line #517” value in data set [1] is on record as 53%. In addition, the “reduce apoptosis of LC cells” value in data set [2] was found to be 59%.

The values are drawn from patent US8754057B2, “Inhibition of apoptosis-specific eIF-5A(eIF-5A1″) with antisense oligonucleotides and siRNA as anti-inflammatory therapeutics” (Senesco Technologies, Inc., priority 2003, dated 2014).
